Measured values taken from PubChem BioAssay (NCI).
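Test compounds were applied to cells in 96-well plates for 48 hours at 5 doses. TGI is the concentration that stops growth completely.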

How the values were obtained:
Assay in all cases: DTP human tumour cell line panel, 48 h
HS 578T breast = system: HS 578T breast
NCI-H23 lung = system: NCI-H23 lung
OVCAR-5 ovarian = system: OVCAR-5 ovarian
MDA-N = system: MDA-N
COLO 205 colon = system: COLO 205 colon
RPMI-8226 leukemia = system: RPMI-8226 leukemia
SW-620 colon = system: SW-620 colon
K-562 leukemia = system: K-562 leukemia
NCI-H460 lung = system: NCI-H460 lung
NCI-H522 lung = system: NCI-H522 lung

SMILES	TGI (HS 578T breast)	TGI (NCI-H23 lung)	TGI (OVCAR-5 ovarian)	TGI (MDA-N)	TGI (COLO 205 colon)	TGI (RPMI-8226 leukemia)	TGI (SW-620 colon)	TGI (K-562 leukemia)	TGI (NCI-H460 lung)	TGI (NCI-H522 lung)
CCOC(=O)c1c2ccccc2n2c(=O)n(-c3ccccc3)nnc12	> 100 µM	> 100 µM	> 100 µM	> 100 µM	> 100 µM	> 100 µM	> 100 µM	47.3 µM	> 100 µM	–
Cc1[nH]n(C(=O)Cc2ccccc2)c(=O)c1/C=C1\C(=O)C=Cc2ccccc21	–	> 100 µM	> 100 µM	–	> 100 µM	> 100 µM	> 100 µM	> 100 µM	> 100 µM	> 100 µM
CCOC(=O)c1cn2c(n1)sc1cc([N+](=O)[O-])ccc12	> 100 µM	> 100 µM	> 100 µM	–	> 100 µM	> 100 µM	> 100 µM	> 100 µM	> 100 µM	> 100 µM
C[C@H]1CC(=O)C[C@@H]2CC[C@@H]3[C@H](CC[C@]4(C)C(OC(=O)c5cccc6c(=O)c7ccccc7[nH]c56)CC[C@@H]34)[C@]21C (stereo partly drawn)	> 100 µM	> 100 µM	> 100 µM	–	62.9 µM	55.6 µM	> 100 µM	> 100 µM	> 100 µM	72.8 µM
O=C(NNC(=O)c1cc2ccccc2[nH]1)c1cc2ccccc2[nH]1	> 100 µM	–	> 100 µM	> 100 µM	> 100 µM	> 100 µM	> 100 µM	> 100 µM	> 100 µM	> 100 µM
O=C1OCC2=C1C(c1ccc(Cl)cc1)c1cc3c(cc1O2)OCO3 (stereo not drawn)	> 72.2 µM	> 100 µM	> 100 µM	3.9 µM	> 100 µM	> 100 µM	> 100 µM	> 100 µM	> 100 µM	–
CCCCCCCCCCCCOC(=N)N1CCOCC1	–	27.4 µM	28.5 µM	–	3.45 µM	5.15 µM	16.6 µM	7.47 µM	30.2 µM	30.4 µM
CCO/C=N\C1=C(C#N)SC2=N/C(=C\c3ccco3)C(=O)N21	> 100 µM	> 100 µM	> 100 µM	> 100 µM	> 100 µM	> 100 µM	> 100 µM	> 100 µM	–	> 100 µM
COCc1nc(C#N)c(N)o1	> 10 µM	> 10 µM	–	> 10 µM	> 10 µM	> 10 µM	> 10 µM	> 10 µM	> 10 µM	> 10 µM
COC(=O)c1c(O)ccc2c1c1c(n2CCc2ccccc2)C(=O)c2ccccc2C1	> 100 µM	74.1 µM	–	> 100 µM	32.5 µM	34 µM	> 100 µM	> 100 µM	48.3 µM	–
CC1=C(C(N)=O)C(c2ccncc2)C(C#N)C(=O)N1 (stereo not drawn)	> 100 µM	> 100 µM	–	–	> 100 µM	> 100 µM	> 100 µM	> 100 µM	> 100 µM	–
C/C(=C/C(=O)N(C)c1ccccc1Cl)O[Si](C(C)C)(C(C)C)C(C)C	–	62.2 µM	34.8 µM	68.7 µM	32.6 µM	63.9 µM	38.9 µM	–	56.2 µM	31.8 µM
CCOc1cc(NC(C)=O)ccc1C(=O)NN1C(=O)/C(=C/c2ccc(Cl)cc2)N=C1c1ccccc1	–	> 100 µM	> 100 µM	> 100 µM	> 100 µM	> 100 µM	> 100 µM	> 100 µM	–	–
CCOC(=O)c1nc2ccccc2nc1Oc1ccc(F)cc1	> 100 µM	–	> 100 µM	> 100 µM	> 100 µM	> 100 µM	> 100 µM	> 100 µM	> 100 µM	–
CC(C)c1cc(C(C)C)c(S(=O)(=O)N/N=C2\CC3CCC2(C)C3(C)C)c(C(C)C)c1 (stereo not drawn)	> 100 µM	> 100 µM	> 100 µM	64.8 µM	79.3 µM	21.2 µM	> 100 µM	> 100 µM	–	36.8 µM
CSc1cnc2ccccc2c1Sc1cn(C)c2ccccc2c1=O	–	65.7 µM	> 100 µM	–	> 100 µM	> 100 µM	> 100 µM	> 100 µM	> 100 µM	–
O=c1[nH]nc(Nc2ccc(Cl)cc2)c2nnn(-c3ccc([N+](=O)[O-])cc3)c12	–	24.9 µM	> 100 µM	–	49.7 µM	> 100 µM	> 100 µM	29.9 µM	> 100 µM	18 µM
N#CC(NNC(=O)c1ccccc1O)c1ccccc1O (stereo not drawn)	–	> 100 µM	> 100 µM	–	> 100 µM	> 100 µM	> 100 µM	> 100 µM	> 100 µM	> 100 µM
NCCCc1nonc1C(=O)O	> 100 µM	> 100 µM	> 100 µM	> 100 µM	> 100 µM	> 100 µM	> 100 µM	> 100 µM	> 100 µM	–
O=C1C/C(=C\c2ccccc2)C(=O)c2ccccc2N1	> 100 µM	48.1 µM	40.9 µM	47.8 µM	34.8 µM	–	40.7 µM	–	62 µM	51.9 µM
FC(F)(F)c1ccc2c(c1)nc(Cc1ccc(Cl)cc1)n2CC1CCCN2CCCCC12 (stereo not drawn)	6.9 µM	–	25 µM	13.7 µM	16 µM	–	27.4 µM	19.4 µM	20.7 µM	16.9 µM
COC(=O)c1c(C(=O)OC)c2ccccn2c1-c1cc(C)cc2c1C(=O)C=CC2=O	24.2 µM	14.8 µM	16.9 µM	15.3 µM	13.4 µM	8.9 µM	8.21 µM	7.63 µM	–	–
Cn1c2ccccc2n2c3ccccc3c3nnc(N)c-3c12	10.8 µM	> 100 µM	> 100 µM	–	> 100 µM	> 100 µM	> 100 µM	> 100 µM	> 100 µM	26.2 µM
COc1ccc(N(c2ccc(C#N)cc2)c2ccc(C#N)cc2)cc1	> 100 µM	> 100 µM	> 100 µM	> 100 µM	> 100 µM	–	> 100 µM	–	> 100 µM	82.9 µM
O=C(O)CN1CCN2CCOCCN(CC1)CCN(CC(=O)O)CC2	> 100 µM	> 100 µM	> 100 µM	–	> 100 µM	> 100 µM	> 100 µM	> 100 µM	> 100 µM	> 100 µM
